Experimental findings from patent US10266495B2, “Phenyl quinolinone derivatives as mutant-isocitrate dehydrogenase inhibitors” (FORMA TM2, Inc., priority 2014, dated 2019) are described below.

The target in assay [1] is IDH1-R132H recombinant protein (Homo sapiens, UniProt O75874, R132H). In words: IDH1-R132H enzymatic assay (NADPH consumption, diaphorase/resazurin readout). Type of assay: biochemical. The note with it: read-out: Enzyme IDH1 R132H IC50 Range. Here is the method:
(§1) Assays were performed in a 384-well black plate. An aliquot of 250 nL of compound was incubated with 10 μL of 30 nM IDH1-R132H or 10 nM IDH1-R132C recombinant protein in assay buffer (50 mM Tris pH=7.5, 150 mM NaCl, 5 mM MgCl2, 0.1% (w/v) Bovine Serum Albumin, and 0.01% Triton X-100) in each well at 25° C. for 15 minutes. After the plate was centrifuged briefly, an aliquot of 10 μL of 2 mM α-ketoglutarate and 20 μM NADPH solution prepared in assay buffer was then added to each well and the reaction was maintained at 25° C. for 45 minutes. An aliquot of 10 μL of diaphorase solution (0.15 U/mL diaphorase and 30 μM Resazurin in assay buffer) was added to each well. […] The IC50 of a given compound was calculated by fitting the dose response curve of inhibition of NADPH consumption at a given concentration with the four parameter logistic equation.
Background: The colour change of resazurin is a common sign of viable cells or microbes.

Assay [2] has as its target IDH1-R132C recombinant protein (Homo sapiens, UniProt O75874, R132C). In words: IDH1-R132C enzymatic assay (NADPH consumption, diaphorase/resazurin readout). The note with it: read-out: Enzyme IDH1 R132C IC50 Range. It counts as biochemical. Here is the method: as §1

What is called pIC50 is the negative decadic logarithm of the IC50, by convention in mol/L.

SMILES strings stand for the structures. pIC50: −log10 of the molar value.

Chain of IDH1-R132C recombinant protein (O75874 whole entry R132C): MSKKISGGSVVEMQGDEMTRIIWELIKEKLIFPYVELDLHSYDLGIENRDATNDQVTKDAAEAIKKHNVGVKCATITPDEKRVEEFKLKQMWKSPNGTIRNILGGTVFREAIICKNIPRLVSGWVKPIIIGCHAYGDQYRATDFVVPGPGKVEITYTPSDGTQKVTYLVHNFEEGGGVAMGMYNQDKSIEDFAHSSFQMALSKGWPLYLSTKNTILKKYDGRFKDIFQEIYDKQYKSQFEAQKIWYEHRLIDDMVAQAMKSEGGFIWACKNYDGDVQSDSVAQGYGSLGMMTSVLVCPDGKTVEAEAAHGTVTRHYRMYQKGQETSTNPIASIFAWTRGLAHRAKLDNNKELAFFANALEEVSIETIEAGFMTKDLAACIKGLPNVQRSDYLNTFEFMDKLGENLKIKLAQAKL
Chain of IDH1-R132H recombinant protein (O75874 whole entry R132H): as the sequence (O75874 whole entry R132C) above, with C132H counted along it

On to `COc1cc(NCc2cc3cc(Cl)c(OCCN4CCCCC4)cc3[nH]c2=O)ccc1C#N` [Compound I-87, 4-[({6-chloro-2-oxo-7-[2-(piperidin-1-yl)ethoxy]-1,2-dihydroquinolin-3-yl}methyl)amino]-2-methoxybenzonitrile], for which the pIC50 is 7.00 to 8.00 in assay [1] and less than 6.00 in assay [2].

As to `COc1cc(NCc2cc3cc(F)ccc3[nH]c2=O)ccc1C#N` [Compound I-27, 4-{[(6-fluoro-2-oxo-1,2-dihydroquinolin-3-yl)methyl]amino}-2-methoxybenzonitrile], the pIC50 in assay [1] and in assay [2] was less than 6.00 in each case.

On to `COc1cc(NCc2cc3cc(Cl)c(OCCN4CCCC4=O)cc3[nH]c2=O)ccc1C#N` [Compound I-86, 4-[({6-chloro-2-oxo-7-[2-(2-oxopyrrolidin-1-yl)ethoxy]-1,2-dihydroquinolin-3-yl}methyl)amino]-2-methoxybenzonitrile], for which the pIC50 in assay [1] was 7.00 to 8.00; in assay [2] it was less than 6.00.

`COc1cc(NCc2cc3cc(Cl)c(OCCN4CCS(=O)(=O)CC4)cc3[nH]c2=O)ccc1C#N` [Compound I-91, 4-[({6-chloro-7-[2-(1,1-dioxo-1λ^6,4-thiomorpholin-4-yl)ethoxy]-2-oxo-1,2-dihydroquinolin-3-yl}methyl)amino]-2-methoxybenzonitrile]: the pIC50 is 6.00 to 7.00 in assay [1] and less than 6.00 in assay [2].

With `COc1cc(NCc2cc3cc(Cl)cc(C)c3[nH]c2=O)ccc1C#N` [Compound I-95, 4-{[(6-chloro-8-methyl-2-oxo-1,2-dihydroquinolin-3-yl)methyl]amino}-2-methoxybenzonitrile], the pIC50 in assay [1] was 6.00 to 7.00; in assay [2], less than 6.00.

For the compound `COc1cc(NC(C)c2cc3cc(Cl)ccc3[nH]c2=O)ccc1C#N` (racemic) [Compound I-1, 4-{[1-(6-chloro-2-oxo-1,2-dihydroquinolin-3-yl)ethyl]amino}-2-methoxybenzonitrile], the pIC50 in assay [1] and in assay [2] was 7.00 to 8.00 in each case.

Turning to `COc1cc(NCc2cc3cc(Cl)c(OCc4ccncc4)cc3[nH]c2=O)ccc1C#N` [Compound I-74, 4-({[6-chloro-2-oxo-7-(pyridin-4-ylmethoxy)-1,2-dihydroquinolin-3-yl]methyl}amino)-2-methoxybenzonitrile], the figures for the pIC50 in assay [1] and in assay [2] were 6.00 to 7.00 and less than 6.00, respectively.

Consider `COc1cc(NCc2cc3cc(Cl)cc(OCCN4CCOCC4)c3[nH]c2=O)ccc1C#N` [Compound I-99, 4-[({6-chloro-8-[2-(morpholin-4-yl)ethoxy]-2-oxo-1,2-dihydroquinolin-3-yl}methyl)amino]-2-methoxybenzonitrile], for which the pIC50 is 6.00 to 7.00 in assay [1] and less than 6.00 in assay [2].

For the compound `COc1cc(NCc2cc3cc(Cl)cc(OCCN4CCCC4)c3[nH]c2=O)ccc1C#N` [Compound I-100, 4-[({6-chloro-2-oxo-8-[2-(pyrrolidin-1-yl)ethoxy]-1,2-dihydroquinolin-3-yl}methyl)amino]-2-methoxybenzonitrile], the pIC50 in assay [1] is 6.00 to 7.00; in assay [2], less than 6.00.

`COc1cc(NCc2cc3cc(Cl)c(OCc4cncn4C)cc3[nH]c2=O)ccc1C#N` [Compound I-77, 4-[({6-chloro-7-[(1-methyl-1H-imidazol-5-yl)methoxy]-2-oxo-1,2-dihydroquinolin-3-yl}methyl)amino]-2-methoxybenzonitrile]: the pIC50 in assay [1] was 7.00 to 8.00; in assay [2], 6.00 to 7.00.

With `COc1cc(NCc2cc3cc(C(F)(F)F)ccc3[nH]c2=O)ccc1C#N` [Compound I-25, 2-methoxy-4-({[2-oxo-6-(trifluoromethyl)-1,2-dihydroquinolin-3-yl]methyl}amino)benzonitrile], the pIC50 was 7.00 to 8.00 in assay [1] and less than 6.00 in assay [2].

Consider `N#Cc1ccc(NCc2cc3cc(Cl)ccc3[nH]c2=O)cc1O` [Compound I-8, 4-{[(6-chloro-2-oxo-1,2-dihydroquinolin-3-yl)methyl]amino}-2-hydroxybenzonitrile], for which the pIC50 was 6.00 to 7.00 in assay [1] and less than 6.00 in assay [2].

As to `COc1cc(NCc2cc3cc(Cl)c(OCC(N)=O)cc3[nH]c2=O)ccc1C#N` [Compound I-68, 2-[(6-chloro-3-{[(4-cyano-3-methoxyphenyl)amino]methyl}-2-oxo-1,2-dihydroquinolin-7-yl)oxy]acetamide], the negative logarithm of the IC50 (pIC50) is 7.00 to 8.00 in assay [1] and 6.00 to 7.00 in assay [2].

With `N#Cc1ccc(NCc2cc3cc(Cl)ccc3[nH]c2=O)cc1OC(F)(F)F` [Compound I-10, 4-{[(6-chloro-2-oxo-1,2-dihydroquinolin-3-yl)methyl]amino}-2-(trifluoromethoxy)benzonitrile], the pIC50 in assay [1] is 6.00 to 7.00; in assay [2], less than 6.00.

Turning to `COc1cc(NCc2cc3cc(Cl)c(OCc4nc(C(N)=O)no4)cc3[nH]c2=O)ccc1C#N` [Compound I-79, 5-{[(6-chloro-3-{[(4-cyano-3-methoxyphenyl)amino]methyl}-2-oxo-1,2-dihydroquinolin-7-yl)oxy]methyl}-1,2,4-oxadiazole-3-carboxamide], the values for the pIC50 in assay [1] and in assay [2] were 7.00 to 8.00 and 6.00 to 7.00, respectively.

As to `COc1cc(NCc2cc3ccc(C)cc3[nH]c2=O)ccc1-n1cnnn1` [Compound I-22, 3-({[3-methoxy-4-(1H-1,2,3,4-tetrazol-1-yl)phenyl]amino}methyl)-7-methyl-1,2-dihydroquinolin-2-one], the pIC50 was 6.00 to 7.00 in assay [1] and less than 6.00 in assay [2].

On to `COc1cc(NCc2cc3cc(Cl)c(OCc4nccn4C)cc3[nH]c2=O)ccc1C#N` [Compound I-78, 4-[({6-chloro-7-[(1-methyl-1H-imidazol-2-yl)methoxy]-2-oxo-1,2-dihydroquinolin-3-yl}methyl)amino]-2-methoxybenzonitrile], for which the pIC50 in assay [1] was 7.00 to 8.00; in assay [2], 6.00 to 7.00.

Turning to `COc1cc(NCc2cc3cc(Cl)cc(OCc4ccccn4)c3[nH]c2=O)ccc1C#N` [Compound I-98, 4-({[6-chloro-2-oxo-8-(pyridin-2-ylmethoxy)-1,2-dihydroquinolin-3-yl]methyl}amino)-2-methoxybenzonitrile], the values for the pIC50 in assay [1] and in assay [2] were 7.00 to 8.00 and less than 6.00, respectively.

For `COc1cc(NCc2cc3cc(Cl)ccc3[nH]c2=O)cc(OC)c1C#N` [Compound I-9, 4-{[(6-chloro-2-oxo-1,2-dihydroquinolin-3-yl)methyl]amino}-2,6-dimethoxybenzonitrile], the pIC50 is 6.00 to 7.00 in assay [1] and less than 6.00 in assay [2].

Consider `COc1cc(NCc2cc3cc(Cl)c(OCc4cccnc4)cc3[nH]c2=O)ccc1C#N` [Compound I-62, 4-({[6-chloro-2-oxo-7-(pyridin-3-ylmethoxy)-1,2-dihydroquinolin-3-yl]methyl}amino)-2-methoxybenzonitrile], for which the pIC50 is 7.00 to 8.00 in assay [1] and less than 6.00 in assay [2].

On to `COc1cc(NCc2cc3cc(Cl)c(OCC4CCS(=O)(=O)CC4)cc3[nH]c2=O)ccc1C#N` [Compound I-75, 4-[({6-chloro-7-[(1,1-dioxo-1λ^6-thian-4-yl)methoxy]-2-oxo-1,2-dihydroquinolin-3-yl}methyl)amino]-2-methoxybenzonitrile], for which the pIC50 in assay [1] was 6.00 to 7.00; in assay [2], less than 6.00.

As to `COc1cc(NCc2cc3cc(Cl)c(OC[C@@H]4CCCN4C)cc3[nH]c2=O)ccc1C#N` [Compound I-94, 4-{[(6-chloro-7-{[(2S)-1-methylpyrrolidin-2-yl]methoxy}-2-oxo-1,2-dihydroquinolin-3-yl)methyl]amino}-2-methoxybenzonitrile], the values for the pIC50 in assay [1] and in assay [2] were 7.00 to 8.00 and less than 6.00, respectively.
